Data from patent US10238630B2, “Use of eribulin and poly (ADP ribose) polymerase (PARP) inhibitors as combination therapy for the treatment of cancer” (Eisai R&D Management Co., Ltd., priority 2014, dated 2019).

Legend:
[1] = tested on: MDA-MB-436 human breast cancer xenografts; assay: Antitumor activity against subcutaneous MDA-MB-436 human breast cancer xenografts in SCID mice (three studies); assay type: in vivo
Description: MDA-MB-436 human triple negative breast cancer cells are BRCA1 mutant and PTEN null. Cells were maintained in monolayer cultures in RPMI-1640 growth medium supplemented with 10% fetal bovine serum at 37° C. in a 5% CO2 humidified incubator. On the day of inoculation, cells were harvested by trypsinization, washed, and resuspended in ice-cold PBS. Female immunodeficient SCID mice were inoculated subcutaneously near the right axillary area with MDA-MB-436 cells (5×10^6) in a 1:1 ratio (50 μL each) with Matrigel™ in a volume of 0.1 mL in phosphate buffered saline, using a 26-gauge needle. A total of 125 mice, approximately 6 weeks old were implanted with MDA-MB-436 cells.
E7449, carboplatin and E7389 were evaluated as single agents and in combination for antitumor activity against MDA-MB-436 human breast cancer xenografts in SCID mice. Three separate studies were performed. The first experiment consisted of a vehicle control group, an E7449 single agent group, two groups treated with single agent E7389 and 2 combination drug-treated groups (Table 1). Thirty mice were inoculated with MDA-MB-436 cells and on Day 58 following implantation, tumor volumes were measured and mice were randomized into the 6 treatment groups based on tumor volume (average of 300 mm^3). Following randomization, drug treatment was initiated. Groups A to D were composed of 5 mice and groups E and F consisted of 4 mice for a total of 28 mice on the first day of treatment. E7449 was formulated in 0.5% methyl cellulose and orally administered once daily for 28 days (starting on Day 58) at 60 mg/kg based on body weight at 0.1 mL per 10 g. E7389 was formulated in saline and was intravenously administered once every 4 days, 4 times (Day 58, 62, 66, and 70) at a dosage of 0.4 or 1.6 mg/kg as single agent or in combination with E7449, based on body weight at 0.1 mL per 10 g. The control group was treated with oral vehicle (0.5% methyl cellulose in water) daily and intravenous vehicle (saline) once every 4 days, 4 times. E7449 or vehicle was administered first and when dosing of all animals was complete, E7389 was administered to animals receiving the combination.
The second experiment consisted of a vehicle control group, an E7449 single agent group, 2 groups treated with single agent carboplatin, and 2 combination drug-treated groups (Table 2). Thirty-five mice were inoculated with MDA-MB-436 cells and on Day 57, following implantation, tumor volumes were measured and mice were randomized into 6 treatment groups based on tumor volume (average of 250 mm^3). Following randomization drug treatment was initiated. Groups A to D were composed of 5 mice and groups E and F consisted of 6 mice for a total of 32 mice on the first day of treatment. E7449, formulated in 0.5% methyl cellulose was orally administered daily for 28 days (starting on Day 57), at 60 mg/kg based on body weight at 0.1 mL per 10 g. Carboplatin was formulated in saline and was intravenously administered once on the first day of treatment (Day 57) at a dosage of 15 or 60 mg/kg as a single agent or in combination with E7449 based on body weight at 0.1 mL per 10 g. The control group was treated with oral vehicle (0.5% methyl cellulose in water) daily and intravenous vehicle (saline) once on Day 57. E7449 or vehicle was administered first, and when dosing of all animals was complete carboplatin was administered to animals receiving the combination.
The third experiment consisted of a vehicle control group, 3 groups treated with single agent E7449, E7389, or carboplatin, 3 groups treated with double combinations of E7449+E7389, E7449+carboplatin, and E7389+carboplatin and a group treated with the three-drug combination (Table 3). Sixty mice were inoculated with MDA-MB-436 cells and on Day 41 following implantation, tumor volumes were measured and mice were randomized into 8 treatment groups based on tumor volume (average of 250 mm^3). Following randomization drug treatment was initiated.

[2] = tested on: MDA-MB-231 human breast cancer xenografts; assay: Antitumor activity against subcutaneous MDA-MB-231 human breast cancer xenografts in athymic mice (two studies); assay type: in vivo; conditions: carboplatin 15 and 60 mg/kg IV QDx1, single agent
Description: MDA-MB-231 human triple negative breast cancer cells are wild type for BRCA1 and 2 and PTEN. Cells were maintained in monolayer cultures in RPMI-1640 growth medium supplemented with 10% fetal bovine serum at 37° C. in a 5% CO2 humidified incubator. On the day of inoculation, cells were harvested by trypsinization, washed, and resuspended in ice-cold PBS. Female immunodeficient athymic mice were inoculated subcutaneously near the right axillary area with MDA-MB-231 cells (5×10^6) in a 1:1 ratio (50 μL each) with Matrigel™ in a volume of 0.1 mL in phosphate buffered saline, using a 26-gauge needle. A total of 94 mice, approximately 6 weeks old were implanted with MDA-MB-231 cells.
E7449, carboplatin and E7389 were evaluated as single agents and in combination for antitumor activity against MDA-MB-231 human breast cancer xenografts in athymic mice. The first experiment consisted of a vehicle control group, an E7449 single agent group, 2 groups treated with single agent E7389 and 2 combination drug-treated groups (Table 5). Thirty-nine mice were inoculated with MDA-MB-231 cells and on Day 21 following implantation, tumor volumes were measured and mice were randomized into the 6 treatment groups based on tumor volume (average of 300 mm^3). Following randomization drug treatment was initiated. Each group was composed of 5 mice for a total of 30 mice on the first day of treatment. E7449 was formulated in 0.5% methyl cellulose and orally administered once daily for 28 days at 100 mg/kg based on body weight at 0.1 mL per 10 g. E7389 was formulated in saline and was intravenously administered once every 4 days, 4 times (Day 21, 25, 29, and 33) at a dosage of 0.05 or 0.1 mg/kg as single agent or in combination with E7449, based on body weight at 0.1 mL per 10 g. The control group was treated with oral vehicle (0.5% methyl cellulose in water) daily and intravenous vehicle (saline) once every 4 days, 4 times. E7449 or vehicle was administered first and when dosing of all animals was complete E7389 was administered to animals receiving the combination.
The second experiment consisted of a vehicle control group, 2 groups treated with single agent E7449, 2 groups treated with single agent carboplatin and 3 combination drug-treated groups (Table 6). Fifty five mice were inoculated with MDA-MB-231 cells and on Day 18 following implantation, tumor volumes were measured and mice were randomized into 8 treatment groups based on tumor volume (average of 300 mm^3). Following randomization drug treatment was initiated. Each group consisted of 5 mice for a total of 40 mice on the first day of treatment. E7449, formulated in 0.5% methyl cellulose was orally administered daily for 28 days, at 60 or 100 mg/kg based on body weight at 0.1 mL per 10 g. Carboplatin was formulated in saline and was intravenously administered once on the first day of treatment (Day 18) at a dosage of 15 or 60 mg/kg as a single agent or in combination with E7449 based on body weight at 0.1 mL per 10 g. The control group was treated with oral vehicle (0.5% methyl cellulose in water) daily and intravenous vehicle (saline) once on Day 18. E7449 or vehicle was administered first and when dosing of all animals was complete carboplatin was administered to animals receiving the combination.
Drug treatment was initiated 21 or 18 days post tumor implantation, in the E7389 and carboplatin combination studies respectively, and continued for 28 days. […]

N.N.O=C([O-])C1(C(=O)[O-])CCC1.[Pt+2] [carboplatin]
antitumor effect (tumor volume) ([1]; E7449+carboplatin study, carboplatin 15 and 60 mg/kg IV QDx1, single agent): Dose-dependent antitumor activity | antitumor effect (tumor volume) ([1]; triple combination study, carboplatin 7.5 mg/kg IV QDx1, single agent): statistically significant tumor growth inhibition | antitumor effect (tumor volume) [2]: Modest antitumor activity
